One compound from patent US20220117912A1, “L-PIPECOLIC ACID COCRYSTAL OF CANNABIDIOL” (EBERS TECH INC., priority 2019, published 2022) can be followed below.

A short description of data set [1]: Visual water solubility test of the cocrystal (0.6 mg in 3 mL water, shaken and sonicated). It is filed as physicochemical. As to the method: 0.6 mg of the cocrystal was placed in a glass vial and 3 mL of water was added. The slurry was immediately shaken and sonicated.
Data set [2] in a line: Exposure to relative humidity (RH) stress, XRPD afterwards. As to conditions: 95% RH for 8 days. It is filed as physicochemical. The source says: X-Ray Powder Diffraction (XRPD): The Rigaku Smart-Lab X-ray diffraction system was configured for reflection Bragg-Brentano geometry using a line source X-ray beam. The x-ray source is a Cu Long Fine Focus tube that was operated at 40 kV and 44 ma. That source provides an incident beam profile at the sample that changes from a narrow line at high angles to a broad rectangle at low angles. Beam conditioning slits are used on the line X-ray source to ensure that the maximum beam size is less than 10 mm both along the line and normal to the line. The Bragg-Brentano geometry is a para-focusing geometry controlled by passive divergence and receiving slits with the sample itself acting as the focusing component for the optics. The inherent resolution of Bragg-Brentano geometry is governed in part by the diffractometer radius and the width of the receiving slit used. Typically, the Rigaku Smart-Lab is operated to give peak widths of 0.1° 2θ or less. The axial divergence of the X-ray beam is controlled by 5.0-degree Soller slits in both the incident and diffracted beam paths. […] Each sample was analyzed from 2 to 40° 2θ using a continuous scan of 6° 2θ per minute with an effective step size of 0.02° 2θ. In the case of high resolution XRPD, samples were analyzed with a scan rate of 1° 2θ per minute with a sample spin rate of 50 rpm. […]

For the compound `C=C(C)[C@@H]1CCC(C)=C[C@H]1c1c(O)cc(CCCCC)cc1O.O=C(O)[C@@H]1CCCCN1` [1:1 cannabidiol:L-pipecolic acid cocrystal], in data set [1] (0.6 mg of cocrystal in 3 mL of water, shaken and sonicated), the “Visual dissolution in water” value is listed as “none of the solid dissolved”. The Water solubility result in data set [1] (water) is “less than 0.2 mg/mL”. The “Solid-form stability under humidity stress (XRPD pattern after stress)” value in data set [2] is recorded as “cocrystal disassociated during the experiment”.
